These results are taken from ChEMBL document CHEMBL3396983, “Synthesis of erythrocentaurin derivatives as a new class of hepatitis B virus inhibitors” (Bioorg Med Chem Lett, 2015).

Bounds are passed on as bounds.

The nature of data set [1]: Cytotoxicity against human HepG2(2.2.15) cells after 72 hrs by MTT assay. It counts as cell-based.
Data set [2] relates to Hepatitis B virus. In words: Inhibition of HBV HBsAg secretion in HepG2(2.2.15) cells after 72 hrs by ELISA method. It counts as functional, organism-based. The conditions noted are these: HepG2 2.2.15, 72 h.
Data set [3] deals with Hepatitis B virus. In words: Inhibition of HBV HBeAg secretion in HepG2(2.2.15) cells after 72 hrs by ELISA method. It counts as functional, organism-based. The settings on record: HepG2 2.2.15, 72 h.
The nature of data set [4]: Selectivity index, ratio of CC50 for human HepG2(2.2.15) cells to IC50 for inhibition of HBV HBeAg secretion in HepG2(2.2.15) cells. It counts as functional.
Data set [5] concerns Hepatitis B virus. In words: Inhibition of HBV DNA replication in HepG2(2.2.15) cells exposed to fresh medium supplemented with compound every other day for additional 5 days by real-time PCR-fluorescent probing method. It counts as functional, organism-based. The conditions noted are these: HepG2 2.2.15, 120 h.
A short description of data set [6]: Selectivity index, ratio of CC50 for human HepG2(2.2.15) cells to IC50 for inhibition of HBV HBsAg secretion in HepG2(2.2.15) cells. It counts as functional.
Data set [7] is described as follows: Selectivity index, ratio of CC50 for human HepG2(2.2.15) cells to IC50 for inhibition of HBV DNA replication in HepG2(2.2.15) cells. It counts as functional.

In data set [1], `O=C1OCCc2c(/C=N/Nc3ccc([N+](=O)[O-])cc3[N+](=O)[O-])cccc21` came in with a CC50 at 72 h of more than 1650 µM. Further, the figures for the half-maximal inhibitory concentration (IC50) in data set [2], in data set [3] and in data set [5] were more than 1650 µM, 1340 µM and more than 410 µM, respectively. Besides, the “Ratio CC50/IC50” value in data set [4] was more than 1.2.

Regarding `O=C1/C(=C/c2cccc3c2CCOC3=O)Oc2cc(O)ccc21`, the CC50 at 72 h in data set [1] is more than 1810 µM. Also, the IC50 was more than 1810 µM in data set [2], more than 1810 µM in data set [3] and more than 450 µM in data set [5].

The molecule `O=C(OCc1cccc2c1CCOC2=O)c1ccc([N+](=O)[O-])cc1` yielded a CC50 at 72 h in data set [1] of more than 2260 µM. Further, the IC50 in data set [2] is more than 2260 µM; in data set [3] it was more than 2260 µM; in data set [5], more than 560 µM.

`O=C(OCc1cccc2c1CCOC2=O)c1cc(=O)c2ccccc2o1`: the CC50 at 72 h in data set [1] turned out to be 2570 µM. Besides, the IC50 in data set [2] amounted to 2300 µM; in data set [3] it was 1810 µM; in data set [5] it was 520 µM. Also, the “Ratio CC50/IC50” value in data set [6] turned out to be 1.1; in data set [4], 1.4; in data set [7], 4.9.

Take `NC(=O)c1cccc2c1CCOC2=O`: in data set [1], the CC50 at 72 h is more than 3290 µM. In addition, the results for the IC50 in data set [2], in data set [3] and in data set [5] were more than 3290 µM, more than 3290 µM and 820 µM, respectively. Further, the “Ratio CC50/IC50” value in data set [7] is more than 4.

`O=C(OCc1cccc2c1CCOC2=O)c1cccnc1` displayed a CC50 at 72 h in data set [1] of more than 2700 µM. Besides, the IC50 was more than 2700 µM in data set [2], more than 2700 µM in data set [3] and more than 680 µM in data set [5].

In data set [1], `CCC(CC)C(=O)OCc1cccc2c1CCOC2=O` displayed a CC50 at 72 h of 1890 µM. The values for the IC50 in data set [2], in data set [3] and in data set [5] were more than 2590 µM, more than 2590 µM and more than 650 µM, respectively.

As to `O=C1OCCc2c(COC(=O)C3CCCCC3)cccc21`, the CC50 at 72 h in data set [1] was more than 1840 µM. Also, the figures for the IC50 in data set [2], in data set [3] and in data set [5] were more than 1840 µM, more than 1840 µM and 26 µM, respectively. Moreover, the “Ratio CC50/IC50” value in data set [7] was more than 70.8.

Molecule `O=C(OCc1cccc2c1CCOC2=O)c1cccc([N+](=O)[O-])c1` yielded a CC50 at 72 h in data set [1] of more than 2720 µM. Besides, the IC50 in data set [2] is more than 2720 µM; in data set [3] it was more than 2720 µM; in data set [5] it was more than 680 µM.

In data set [1], `O=C(OCc1cccc2c1CCOC2=O)c1ccco1` displayed a CC50 at 72 h of more than 2350 µM. Besides, the IC50 in data set [2] was more than 2350 µM; in data set [3], more than 2350 µM; in data set [5], more than 840 µM.

`COc1cccc(/C=C/C(=O)OCc2cccc3c2CCOC3=O)c1` had a CC50 at 72 h in data set [1] of more than 1620 µM. Further, the IC50 is more than 1620 µM in data set [2], 840 µM in data set [3] and 45 µM in data set [5]. The “Ratio CC50/IC50” value in data set [4] is recorded as more than 1.9; in data set [7], more than 36.

Turning to `O=C1OCCc2c(CO)cccc21`, the CC50 at 72 h in data set [1] is more than 3800 µM. Also, the figures for the IC50 in data set [2], in data set [3] and in data set [5] were 2700 µM, 1460 µM and 170 µM, respectively. The “Ratio CC50/IC50” value in data set [6] was more than 1.4; in data set [4], more than 2.6; in data set [7], more than 22.4.

In the case of `O=Cc1cccc2c1CCOC2=O`, the CC50 at 72 h in data set [1] came to 1760 µM. The IC50 was 1300 µM in data set [2], 1140 µM in data set [3] and 760 µM in data set [5]. Also, the “Ratio CC50/IC50” value in data set [6] stood at 1.4; in data set [4] it was 1.5; in data set [7], 2.3.

`O=C1OCCc2c(/C=C\c3ccccc3)cccc21`: in data set [1], the 50% cytotoxic concentration (CC50) at 72 h was more than 2160 µM. Further, the IC50 in data set [2] is more than 2160 µM; in data set [3], more than 2160 µM; in data set [5], 80 µM. Moreover, the “Ratio CC50/IC50” value in data set [7] is more than 27.

`CCOCC(=O)OCc1cccc2c1CCOC2=O` yielded a CC50 at 72 h in data set [1] of more than 3680 µM. Besides, the IC50 was more than 3680 µM in data set [2], more than 3680 µM in data set [3] and more than 920 µM in data set [5].

`C[C@H](Cn1cnc2c(N)ncnc21)OCP(=O)(O)O` [TENOFOVIR ANHYDROUS]: the CC50 at 72 h in data set [1] was 1850 µM. Further, the IC50 in data set [2] was found to be 2320 µM; in data set [3] it was 1940 µM; in data set [5], 0.5 µM. In data set [7], the “Ratio CC50/IC50” value was more than 3571.3.

`CCCCCCCC(=O)OCc1cccc2c1CCOC2=O` came in with a CC50 at 72 h in data set [1] of more than 3450 µM. Moreover, the IC50 in data set [2] was more than 3450 µM; in data set [3], more than 3450 µM; in data set [5] it was more than 860 µM.

On to `O=C(OCc1cccc2c1CCOC2=O)c1cc2ccccc2[nH]1`, for which, in data set [1], the half-maximal cytotoxic concentration (CC50) at 72 h is more than 2050 µM. Also, the IC50 in data set [2] is more than 2050 µM; in data set [3], more than 2050 µM; in data set [5], 77 µM. In addition, the “Ratio CC50/IC50” value in data set [7] is reported as more than 26.6.

For the molecule `O=C1OCCc2c1cccc2C1OCCO1`, in data set [1], the CC50 at 72 h was more than 2580 µM. Also, the values for the IC50 in data set [2], in data set [3] and in data set [5] were more than 2580 µM, 2180 µM and 570 µM, respectively. Further, the “Ratio CC50/IC50” value in data set [4] is given as more than 1.2; in data set [7] it was more than 4.5.

`N=C(N)c1cccc2c1CCOC2=O` had a CC50 at 72 h in data set [1] of 2050 µM. The IC50 in data set [2] came out at 2240 µM; in data set [3] it was 2840 µM; in data set [5], 380 µM. Besides, the “Ratio CC50/IC50” value in data set [7] is given as 5.4.

Regarding `O=C(O)c1cccc2c1CCOC2=O`, the CC50 at 72 h in data set [1] is more than 4540 µM. For the same molecule, the IC50 amounted to 3180 µM in data set [2], 2950 µM in data set [3] and 390 µM in data set [5]. Also, the results for the “Ratio CC50/IC50” value in data set [6], in data set [4] and in data set [7] were more than 1.4, more than 1.5 and more than 11.6, respectively.

On to `O=C1OCCc2c(/C=C/c3ccccc3)cccc21`, for which the CC50 at 72 h in data set [1] is more than 2430 µM. Also, the IC50 in data set [2] was more than 2430 µM; in data set [3] it was more than 2430 µM; in data set [5] it was 110 µM. The “Ratio CC50/IC50” value in data set [7] is recorded as more than 22.1.

For `O=C(O)c1ccccc1C(=O)OCc1cccc2c1CCOC2=O`, in data set [1], the CC50 at 72 h turned out to be 130 µM. Besides, the results for the IC50 in data set [2], in data set [3] and in data set [5] were 72 µM, 56 µM and 84 µM, respectively. Besides, the “Ratio CC50/IC50” value came out at 1.8 in data set [6], 2.3 in data set [4] and 1.6 in data set [7].

The molecule `O=C1OCCc2c(/C=N\O)cccc21` displayed a CC50 at 72 h in data set [1] of more than 4000 µM. The IC50 in data set [2] was more than 4000 µM; in data set [3], 2330 µM; in data set [5] it was 360 µM. For the same molecule, the figures for the “Ratio CC50/IC50” value in data set [4] and in data set [7] were more than 1.7 and more than 11.1, respectively.

In data set [1], `O=C(OCc1cccc2c1CCOC2=O)c1cc2ccccc2o1` gave a CC50 at 72 h of 830 µM. Further, the IC50 was 1630 µM in data set [2], more than 2670 µM in data set [3] and 540 µM in data set [5]. The “Ratio CC50/IC50” value in data set [6] is less than 1; in data set [7] it was 1.5.

In data set [1], `CC(=O)OCc1cccc2c1CCOC2=O` gave a CC50 at 72 h of more than 2430 µM. Further, the IC50 in data set [2] is 1310 µM; in data set [3], more than 2430 µM; in data set [5], more than 860 µM. For the same molecule, the “Ratio CC50/IC50” value in data set [6] was more than 1.8.
